Consider four molecules from PMC3177605 (Bioorganic & medicinal chemistry letters, 2009).

The subject of experiment [1] is mGluR5. Kind of experiment: functional mGluR5 antagonist assay. Type of experiment: cell-based. Conditions: for IC50 in functional HTS: identified from the functional HTS.
Experiment [2] concerns the target mGluR5 (Rattus norvegicus, UniProt P31424). Kind of experiment: functional mGluR5 antagonist assay. Type of experiment: cell-based.

Chain of mGluR5 (P31424 21-1203): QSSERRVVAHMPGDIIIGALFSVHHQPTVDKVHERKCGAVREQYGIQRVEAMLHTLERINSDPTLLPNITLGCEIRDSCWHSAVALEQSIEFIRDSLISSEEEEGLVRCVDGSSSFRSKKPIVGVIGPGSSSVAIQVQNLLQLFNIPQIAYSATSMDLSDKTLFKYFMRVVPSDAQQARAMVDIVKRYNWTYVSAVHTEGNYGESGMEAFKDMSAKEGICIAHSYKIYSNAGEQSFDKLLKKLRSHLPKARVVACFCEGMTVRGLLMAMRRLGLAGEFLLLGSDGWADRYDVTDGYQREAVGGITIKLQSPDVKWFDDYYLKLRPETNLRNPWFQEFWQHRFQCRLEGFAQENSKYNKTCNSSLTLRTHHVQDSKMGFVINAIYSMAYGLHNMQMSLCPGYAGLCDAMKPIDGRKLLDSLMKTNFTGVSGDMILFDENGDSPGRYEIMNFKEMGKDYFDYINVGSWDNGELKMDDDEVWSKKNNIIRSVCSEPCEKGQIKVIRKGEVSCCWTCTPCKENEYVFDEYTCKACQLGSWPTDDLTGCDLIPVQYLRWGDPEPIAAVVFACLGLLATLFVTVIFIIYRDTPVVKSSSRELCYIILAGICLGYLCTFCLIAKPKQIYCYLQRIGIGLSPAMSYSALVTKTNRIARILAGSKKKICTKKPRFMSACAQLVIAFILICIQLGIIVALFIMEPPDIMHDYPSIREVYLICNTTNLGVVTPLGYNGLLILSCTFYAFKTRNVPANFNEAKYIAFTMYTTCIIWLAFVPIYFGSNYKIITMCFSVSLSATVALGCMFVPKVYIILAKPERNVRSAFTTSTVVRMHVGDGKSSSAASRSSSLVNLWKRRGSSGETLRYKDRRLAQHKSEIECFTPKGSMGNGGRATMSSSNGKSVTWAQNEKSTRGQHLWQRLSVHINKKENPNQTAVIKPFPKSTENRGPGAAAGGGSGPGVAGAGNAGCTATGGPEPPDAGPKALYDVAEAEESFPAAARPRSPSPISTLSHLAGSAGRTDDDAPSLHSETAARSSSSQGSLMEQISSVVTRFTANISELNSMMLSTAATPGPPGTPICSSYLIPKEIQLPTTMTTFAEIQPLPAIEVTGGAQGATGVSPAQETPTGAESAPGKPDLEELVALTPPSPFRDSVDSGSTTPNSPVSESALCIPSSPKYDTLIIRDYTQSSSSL
Chain of mGluR5 (Rattus norvegicus, UniProt P31424) (P31424 21-1203): as above

With `O=C(N1CCN(c2ccncc2)CC1)C12CC3CC(CC(C3)C1)C2` [Cmpd 20b], the “mGluR5 inhibitory activity” value in the experiment on mGluR5 [1] is recorded as “loses all mGluR5 inhibitory activity”.
For `O=C(N1CCN(c2ccccn2)CC1)C12CC3CC(CC(C3)C1)C2` [Cmpd 11], the “IC50 in functional HTS” value on mGluR5 [1] is on record as “submicromolar”.
Regarding `Cc1cc(C)c2c(N)c(C(=O)c3ccc(F)cc3)oc2n1` [Cmpd 12, (3-amino-4,6-dimethylfuro[2,3-b]pyridine-2-yl)(4-fluorophenyl)methanone], the half-inhibitory concentration (IC50) with mGluR5 [2] (read-out: mGluR5 IC50, newly synthesized material) came out at 150 nM. Also, the “% Glu Max” value with mGluR5 [2] (upon resynthesis) came to 1.39%.
In the case of `O=C(c1ccco1)N1CCCC2(CCCCC2)C1` [Cmpd 10], the “IC50 in functional HTS” value against mGluR5 [1] was “submicromolar”.

As usually defined, the IC50 is the point on the concentration scale where inhibition reaches its midpoint.
